Reference: patent US11377451B2, “Compositions and methods for treating cancer” (The Regents of the University of California, priority 2019, dated 2022)

Columns and labels:
GBM39 = assay: GI50 assay (Cell Titer Glo proliferation, 3 days); format: cell-based, human; conditions: Homo sapiens, 72 h; GBM39, 3 days
HK301 = assay: GI50 assay (Cell Titer Glo proliferation, 3 days); format: cell-based, human; conditions: Homo sapiens, 72 h; HK301, 3 days; read-out: HK301 GI50

Row | Compound | GI50 (GBM39) [µM] | GI50 (HK301) [µM]
1 | OC1COc2cc3ncnc(Nc4cccc(Br)c4F)c3cc2O1 (racemic) [JGK050, (±)-4-(3-Bromo-2-fluoroanilino)-7,8-dihydro[1,4]dioxino[2,3-g]quinazolin-7-ol] | 3.57 | 1.16
2 | CC1Oc2cc3ncnc(Nc4cccc(Br)c4F)c3cc2OC1C (racemic) [JGK051, (±)-cis- and (±)-trans-N-(3-Bromo-2-fluorophenyl)-7,8-dimethyl-7,8-dihydro[1,4]dioxino[2,3-g]quinazolin-4-amine] | 24.1 | 8.25
3 | C[C@@H]1Oc2cc3c(Nc4cccc(Br)c4F)ncnc3cc2O[C@@H]1C (racemic) [JGK052, (±)-cis-N-(3-Bromo-2-fluorophenyl)-7,8-dimethyl-7,8-dihydro[1,4]dioxino[2,3-g]quinazolin-4-amine] | 9.22 | 3.87
4 | C[C@@H]1Oc2cc3ncnc(Nc4cccc(Br)c4F)c3cc2O[C@H]1C (racemic) [JGK059, (±)-trans-N-(3-Bromo-2-fluorophenyl)-7,8-dimethyl-7,8-dihydro[1,4]dioxino[2,3-g]quinazolin-4-amine] | 11.2 | 8.11
5 | C=CC1COc2cc3ncnc(Nc4cccc(Br)c4F)c3cc2O1 (racemic) [JGK062, (±)-N-(3-Bromo-2-fluorophenyl)-7-ethenyl-7,8-dihydro[1,4]dioxino[2,3-g]quinazolin-4-amine] | 5.86 | 3.78
6 | Fc1c(Br)cccc1Nc1ncnc2cc3c(cc12)OC(CCN1CCOCC1)CO3 (racemic) [JGK064, (±)-N-(3-Bromo-2-fluorophenyl)-7-[2-(morpholin-4-yl)ethyl]-7,8-dihydro[1,4]dioxino[2,3-g]quinazolin-4-amine] | 4 | 1.21
7 | Fc1c(Br)cccc1Nc1ncnc2cc3c(cc12)OC(CN1CCCCC1)CO3 (racemic) [JGK065, (±)-N-(3-Bromo-2-fluorophenyl)-7-[(piperidin-1-yl)methyl]-7,8-dihydro[1,4]dioxino[2,3-g]quinazolin-4-amine] | 7.34 | 3.43
8 | Fc1c(Br)cccc1Nc1ncnc2cc3c(cc12)OC(CN1CCCC1)CO3 (racemic) [JGK067, (±)-N-(3-Bromo-2-fluorophenyl)-7-[(pyrrolidin-1-yl)methyl]-7,8-dihydro[1,4]dioxino[2,3-g]quinazolin-4-amine] | 2.2 | 0.898
9 | CN(C)CCC1COc2cc3ncnc(Nc4cccc(Br)c4F)c3cc2O1 (racemic) [JGK069, (±)-N-(3-Bromo-2-fluorophenyl)-7-[2-(dimethylamino)ethyl]-7,8-dihydro[1,4]dioxino[2,3-g]quinazolin-4-amine] | 2.17 | 0.659
10 | CN1CCN(CCC2COc3cc4ncnc(Nc5cccc(Br)c5F)c4cc3O2)CC1 (racemic) [JGK070, (±)-N-(3-Bromo-2-fluorophenyl)-7-[2-(4-methylpiperazin-1-yl)ethyl]-7,8-dihydro[1,4]dioxino[2,3-g]quinazolin-4-amine] | 3.33 | 1.41
11 | CN1CCN(CC2COc3cc4ncnc(Nc5cccc(Cl)c5F)c4cc3O2)CC1 (racemic) [JGK075, (±)-N-(3-Chloro-2-fluorophenyl)-7-[(4-methylpiperazin-1-yl)methyl]-7,8-dihydro[1,4]dioxino [2,3-g]quinazolin-4-amine] | 4 | 1.18
12 | Fc1c(Br)cccc1Nc1ncnc2cc3c(cc12)OCC(CN1CCOCC1)O3 (racemic) [JGK076, (±)-N-(3-Bromo-2-fluorophenyl)-8-[(morpholin-4-yl)methyl]-7,8-dihydro[1,4]dioxino[2,3-g]quinazolin-4-amine] | 16.9 | 6.16
13 | CN(C)CC1COc2cc3c(Nc4cccc(Br)c4F)ncnc3cc2O1 (racemic) [JGK077, (±)-N-(3-Bromo-2-fluorophenyl)-8-[(dimethylamino)methyl]-7,8-dihydro[1,4]dioxino[2,3-g]quinazolin-4-amine] | 16.7 | 6.84
14 | CN1CCN(CC2COc3cc4c(Nc5cccc(Br)c5F)ncnc4cc3O2)CC1 (racemic) [JGK078, (±)-N-(3-Bromo-2-fluorophenyl)-8-[(4-methylpiperazin-1-yl)methyl]-7,8-dihydro[1,4]dioxino[2,3-g]quinazolin-4-amine] | 5.76 | 2.03
15 | Fc1c(Br)cccc1Nc1ncnc2cc3c(cc12)OCC(CN1CCCC1)O3 (racemic) [JGK079, (±)-N-(3-Bromo-2-fluorophenyl)-8-[(pyrrolidin-1-yl)methyl]-7,8-dihydro[1,4]dioxino[2,3-g]quinazolin-4-amine] | 15.7 | 7.21
16 | Fc1c(Br)cccc1Nc1ncnc2cc3c(cc12)OCC(CN1CCCCC1)O3 (racemic) [JGK080, (±)-N-(3-Bromo-2-fluorophenyl)-8-[(piperidin-1-yl)methyl]-7,8-dihydro[1,4]dioxino[2,3-g]quinazolin-4-amine] | 14.5 | 7.37
17 | Fc1c(Br)cccc1Nc1ncnc2cc3c(cc12)OC(CCN1CCCC1)CO3 (racemic) [JGK084, (±)-N-(3-Bromo-2-fluorophenyl)-7-[2-(pyrrolidin-1-yl)ethyl]-7,8-dihydro[1,4]dioxino[2,3-g]quinazolin-4-amine] | 5.64 | 1.83
18 | Fc1c(Br)cccc1Nc1ncnc2cc3c(cc12)OC(CCN1CCCCC1)CO3 (racemic) [JGK085, (±)-N-(3-Bromo-2-fluorophenyl)-7-[2-(piperidin-1-yl)ethyl]-7,8-dihydro[1,4]dioxino[2,3-g]quinazolin-4-amine] | 2.62 | 1.02
19 | Fc1c(Br)cccc1Nc1ncnc2cc3c(cc12)OCC(CCN1CCOCC1)O3 (racemic) [JGK086, (±)-N-(3-Bromo-2-fluorophenyl)-8-[2-(morpholin-4-yl)ethyl]-7,8-dihydro[1,4]dioxino[2,3-g]quinazolin-4-amine] | 4.45 | 2.56
20 | CN(C)CCC1COc2cc3c(Nc4cccc(Br)c4F)ncnc3cc2O1 (racemic) [JGK087, (±)-N-(3-Bromo-2-fluorophenyl)-8-[2-(dimethylamino)ethyl]-7,8-dihydro[1,4]dioxino[2,3-g]quinazolin-4-amine] | 5.26 | 3.74
21 | CN1CCN(CCC2COc3cc4c(Nc5cccc(Br)c5F)ncnc4cc3O2)CC1 (racemic) [JGK088, (±)-N-(3-Bromo-2-fluorophenyl)-8-[2-(4-methylpiperazin-1-yl)ethyl]-7,8-dihydro[1,4]dioxino[2,3-g]quinazolin-4-amine] | 4.06 | 2.13
22 | Fc1c(Br)cccc1Nc1ncnc2cc3c(cc12)OCC(CCN1CCCC1)O3 (racemic) [JGK089, (±)-N-(3-Bromo-2-fluorophenyl)-8-[2-(pyrrolidin-1-yl)ethyl]-7,8-dihydro[1,4]dioxino[2,3-g]quinazolin-4-amine] | 5.09 | 3.16
23 | C#Cc1cccc(N(C(=O)[C@H](Cc2ccccc2)NC(=O)OC(C)(C)C)c2ncnc3cc(OCCOC)c(OCCOC)cc23)c1 [JGK007] |  | 92.1
24 | CC(C)(C)OC(=O)N(CCS(C)(=O)=O)Cc1ccc(-c2ccc3ncnc(Nc4ccc(OCc5cccc(F)c5)c(Cl)c4)c3c2)o1 [JGK008] |  | 81.3
25 | CCOC(=O)N(c1cccc(Cl)c1F)c1ncnc2cc3c(cc12)OCCO3 [JGK047, Ethyl (3-chloro-2-fluorophenyl)7,8-dihydro[1,4]dioxino[2,3-g]quinazolin-4-ylcarbamate] |  | 316
